Patent publication US11208400B2, “Substituted 6-(1H-pyrazol-1-yl)pyrimidin-4-amine derivatives and uses thereof” (Bayer Aktiengesellschaft, priority 2016, dated 2021)
pIC50: −log10 of the molar value.

These compounds were tested against T1, human Npt2a (Homo sapiens, UniProt Q06495) (assay: Npt2a activity cell based assay, membrane potential dye, CHO T-REx hNpt2a cells). Details: doxycycline-induced, depolarization by sodium phosphate influx, average or median values if tested more than once.
T1 construct: expressed in transfected cells
T1 sequence (Q06495 1-639): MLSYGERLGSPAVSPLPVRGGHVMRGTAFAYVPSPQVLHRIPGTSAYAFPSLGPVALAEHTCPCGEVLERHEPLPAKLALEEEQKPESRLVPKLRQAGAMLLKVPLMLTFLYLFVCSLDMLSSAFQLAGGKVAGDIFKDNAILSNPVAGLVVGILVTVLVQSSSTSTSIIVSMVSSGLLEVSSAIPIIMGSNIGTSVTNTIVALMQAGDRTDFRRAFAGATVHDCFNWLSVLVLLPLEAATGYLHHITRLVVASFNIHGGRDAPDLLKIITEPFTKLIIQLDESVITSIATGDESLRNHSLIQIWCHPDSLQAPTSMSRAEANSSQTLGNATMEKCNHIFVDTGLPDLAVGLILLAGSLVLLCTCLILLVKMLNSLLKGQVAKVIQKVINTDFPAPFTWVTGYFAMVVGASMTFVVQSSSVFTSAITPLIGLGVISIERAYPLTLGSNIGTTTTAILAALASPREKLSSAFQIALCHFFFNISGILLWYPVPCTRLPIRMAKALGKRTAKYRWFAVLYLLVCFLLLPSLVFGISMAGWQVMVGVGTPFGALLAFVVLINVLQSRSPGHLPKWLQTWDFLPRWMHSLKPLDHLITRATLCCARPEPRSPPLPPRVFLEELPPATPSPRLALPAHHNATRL
Summary of the method: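 Cells were doxycycline-induced CHO T-REx hNpt2a, dye-loaded and pretreated 5 min at RT with 1 nM–50 μM compound in Na-free pH 7.4 buffer. IC50 was fit to the post/pre-trigger fluorescence ratio.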

**Q.** How did the pIC50 turn out when CNc1ccc(-c2nn(CC3CC3)c(Nc3cc(-n4nc(C)c(C(F)(F)F)c4C)ncn3)c2C)cc1 [Example 488, N-{1-(cyclopropylmethyl)-4-methyl-3-[4-(methylamino)phenyl]-1H-pyrazol-5-yl}-6-[3,5-dimethyl-4-(trifluoromethyl)-1H-pyrazol-1-yl]pyrimidin-4-amine] was run?
**A.** Its pIC50 is 7.19.

**Q.** CCc1c(Nc2cc(-n3nc(C)cc3CO)ncn2)nn(C)c1-c1ccc(F)cc1 [Example 104, [1-(6-{[4-ethyl-5-(4-fluorophenyl)-1-methyl-1H-pyrazol-3-yl]amino}pyrimidin-4-yl)-3-methyl-1H-pyrazol-5-yl]methanol] was tested. Which pIC50 did it give?
**A.** Its pIC50 is 6.82.

**Q.** With CCOC(=O)c1c(C)nn(-c2cc(Nc3c(C)c(-c4ccc(OC(F)(F)F)cc4)nn3CC3CC3)ncn2)c1C [Example 284, ethyl 1-[6-({1-(cyclopropylmethyl)-4-methyl-3-[4-(trifluoromethoxy)phenyl]-1H-pyrazol-5-yl}amino)pyrimidin-4-yl]-3,5-dimethyl-1H-pyrazole-4-carboxylate] as the compound, how does the pIC50 read?
**A.** Its pIC50 is 7.60.

**Q.** With CCc1c(Nc2cc(-n3nc(C)c4ccccc43)ncn2)n[nH]c1-c1ccc(F)cc1 [Example 19, N-[4-ethyl-5-(4-fluorophenyl)-1H-pyrazol-3-yl]-6-(3-methyl-1H-indazol-1-yl)pyrimidin-4-amine] as the compound, how does the pIC50 read?
**A.** The pIC50 was 6.96.

**Q.** Cc1cc(C(F)F)n(-c2cc(Nc3nn(C)c(-c4ccc(F)cc4)c3C3CC3)ncn2)n1 [Example 95, N-[4-cyclopropyl-5-(4-fluorophenyl)-1-methyl-1H-pyrazol-3-yl]-6-[5-(difluoromethyl)-3-methyl-1H-pyrazol-1-yl]pyrimidin-4-amine] was tested. Which pIC50 did it give?
**A.** The pIC50 was 7.20.

**Q.** CCOC(=O)c1c(Cl)c(C)nn1-c1cc(Nc2nn(C)c(-c3ccc(F)cc3)c2Cl)ncn1 [Example 303, ethyl 4-chloro-1-(6-{[4-chloro-5-(4-fluorophenyl)-1-methyl-1H-pyrazol-3-yl]amino}pyrimidin-4-yl)-3-methyl-1H-pyrazole-5-carboxylate] was tested. Which pIC50 did it give?
**A.** The pIC50 was 7.33.

**Q.** CCOC(=O)c1c(C)nn(-c2cc(Nc3nn(C)c(-c4ccc(F)cc4)c3C)ncn2)c1C [Example 61, ethyl 1-(6-{[5-(4-fluorophenyl)-1,4-dimethyl-1H-pyrazol-3-yl]amino}pyrimidin-4-yl)-3,5-dimethyl-1H-pyrazole-4-carboxylate] was tested. Which pIC50 did it give?
**A.** The pIC50 was 8.36.

**Q.** With Cc1nn(-c2cc(Nc3c(C)c(-c4ccc(F)cc4)nn3CC3CC3)ncn2)c(C)c1S(C)(=O)=O [Example 423, N-[1-(cyclopropylmethyl)-3-(4-fluorophenyl)-4-methyl-1H-pyrazol-5-yl]-6-[3,5-dimethyl-4-(methylsulfonyl)-1H-pyrazol-1-yl]pyrimidin-4-amine] as the compound, how does the pIC50 read?
**A.** The pIC50 was 7.26.

**Q.** How did the pIC50 turn out when Cc1nn(-c2cc(Nc3[nH]nc(-c4ccc(F)cc4F)c3Cl)ncn2)c(C)c1Cl [Example 3, N-[4-chloro-3-(2,4-difluorophenyl)-1H-pyrazol-5-yl]-6-(4-chloro-3,5-dimethyl-1H-pyrazol-1-yl)pyrimidin-4-amine] was run?
**A.** The pIC50 was 7.89.

**Q.** With CCOC(=O)c1c(C)nn(-c2cc(Nc3c(C)c(-c4ccc(F)cn4)nn3CC3CC3)ncn2)c1C [Example 438, ethyl 1-(6-{[1-(cyclopropylmethyl)-3-(5-fluoropyridin-2-yl)-4-methyl-1H-pyrazol-5-yl]amino}pyrimidin-4-yl)-3,5-dimethyl-1H-pyrazole-4-carboxylate] as the compound, how does the pIC50 read?
**A.** Its pIC50 is 7.80.
